In ChEMBL document CHEMBL1201862, “PubChem BioAssay data set” (2004):
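Dose response: 5 concentrations. Exposure: 48 h. Format: 96-well plates. Endpoint: linear interpolation; highest concentration if not reached. GI50 marks 50% less growth.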 Calls of active or inactive are those of the source. Cut-off read from the data, not from the text of the source: active = GI50 up to about 1.1 µM and inactive = higher.

Legend:
Test in all cases: NCI-60 cell line screen, 48 h
TK-10 = system: TK-10
HCT-15 = system: HCT-15
LOX IMVI = system: LOX IMVI
RXF 393 = system: RXF 393
SK-MEL-5 = system: SK-MEL-5
HOP-92 = system: HOP-92
U-251 = system: U-251
ACHN = system: ACHN
COLO 205 = system: COLO 205
SK-MEL-28 = system: SK-MEL-28
MOLT-4 = system: MOLT-4
SNB-19 = system: SNB-19
KM12 = system: KM12
SNB-75 = system: SNB-75
A498 = system: A498
DU-145 = system: DU-145
T47D = system: T47D
MDA-MB-231 = system: MDA-MB-231
MCF7 = system: MCF7

Structure (SMILES)	GI50 (TK-10)	GI50 (HCT-15) [µM]	GI50 (LOX IMVI)	GI50 (RXF 393)	GI50 (SK-MEL-5)	GI50 (HOP-92)	GI50 (U-251)	GI50 (ACHN)	GI50 (COLO 205)	GI50 (SK-MEL-28)	GI50 (MOLT-4)	GI50 (SNB-19)	GI50 (KM12)	GI50 (SNB-75)	GI50 (A498)	GI50 (DU-145)	GI50 (T47D)	GI50 (MDA-MB-231)	GI50 (MCF7)
OCCSCC/C(=N\N=C(/CCSCCO)c1ccccc1)c1ccccc1	> 100 µM (inactive)	> 100	93.8 µM (inactive)	36.2 µM (inactive)	88.7 µM (inactive)	31.1 µM (inactive)	> 100 µM (inactive)	74.5 µM (inactive)	> 100 µM (inactive)	> 100 µM (inactive)	77.4 µM (inactive)	> 100 µM (inactive)	66.8 µM (inactive)	–	–	–	–	–	–
Cc1c2c(ccc3ccccc32)c[n+]2ccccc12	> 100 µM (inactive)	86.9	–	–	3.56 µM (inactive)	40.6 µM (inactive)	2.03 µM (inactive)	44.4 µM (inactive)	13 µM (inactive)	15.7 µM (inactive)	6.59 µM (inactive)	2.07 µM (inactive)	1.09 µM (active)	4.21 µM (inactive)	–	–	–	–	–
COc1cc2ccnc([C@@H](OC(=O)c3ccccc3)c3ccc(OC)c(OC)c3OC)c2cc1OC	75.5 µM (inactive)	42.4	39.1 µM (inactive)	26.9 µM (inactive)	23.1 µM (inactive)	23.3 µM (inactive)	37.5 µM (inactive)	32.7 µM (inactive)	48.5 µM (inactive)	59.6 µM (inactive)	41.6 µM (inactive)	53.1 µM (inactive)	36.9 µM (inactive)	21.5 µM (inactive)	36.1 µM (inactive)	–	–	–	–
CCCCCCCCCCCC(=O)CC(=O)c1c(O)cccc1O	24.9 µM (inactive)	22.6	17.4 µM (inactive)	17.7 µM (inactive)	19.1 µM (inactive)	20.4 µM (inactive)	17.7 µM (inactive)	19.2 µM (inactive)	17.3 µM (inactive)	21.4 µM (inactive)	19.7 µM (inactive)	20 µM (inactive)	17.5 µM (inactive)	19.4 µM (inactive)	–	–	–	–	–
O=C(O)C1CCC(=O)N1C(=O)C(Cl)c1ccccc1 (stereo not given)	> 100 µM (inactive)	> 100	> 100 µM (inactive)	–	> 100 µM (inactive)	> 100 µM (inactive)	> 100 µM (inactive)	> 100 µM (inactive)	> 100 µM (inactive)	> 100 µM (inactive)	> 100 µM (inactive)	> 100 µM (inactive)	> 100 µM (inactive)	> 100 µM (inactive)	> 100 µM (inactive)	–	–	–	–
COc1cc(C(C)c2cc3c(cc2OCCN)OCO3)cc(OC)c1OC (stereo not given)	73.5 µM (inactive)	> 100	> 100 µM (inactive)	21.8 µM (inactive)	> 10 µM (inactive)	–	42.5 µM (inactive)	> 100 µM (inactive)	> 100 µM (inactive)	28.2 µM (inactive)	10.9 µM (inactive)	54.8 µM (inactive)	28.4 µM (inactive)	18.5 µM (inactive)	> 100 µM (inactive)	–	–	–	–
CCCCCCCCCC[C@@H](O)[C@@H]1CC[C@H]([C@H]2CC[C@@H]([C@@H](O)CCCCCCCCCC[C@H]3CC(CC(C)=O)C(=O)O3)O2)O1 (stereo not given in full)	12.6 µM (inactive)	4.55	10.2 µM (inactive)	–	< 0.01 µM (active)	14.7 µM (inactive)	15 µM (inactive)	–	13.4 µM (inactive)	9.35 µM (inactive)	1.67 µM (inactive)	10.4 µM (inactive)	–	12 µM (inactive)	16.2 µM (inactive)	–	–	–	–
COC(=O)/C(C#N)=C1\CCC(O)N1 (stereo not given)	> 100 µM (inactive)	–	> 100 µM (inactive)	> 100 µM (inactive)	–	–	> 100 µM (inactive)	> 100 µM (inactive)	> 100 µM (inactive)	> 100 µM (inactive)	> 100 µM (inactive)	> 100 µM (inactive)	> 100 µM (inactive)	> 100 µM (inactive)	–	–	–	–	–
CN(CCc1ccccn1)c1nc(=[N+](C)C)ss1	> 100 µM (inactive)	> 100	> 100 µM (inactive)	> 100 µM (inactive)	> 100 µM (inactive)	> 100 µM (inactive)	> 100 µM (inactive)	> 100 µM (inactive)	> 100 µM (inactive)	> 100 µM (inactive)	> 100 µM (inactive)	> 100 µM (inactive)	28.1 µM (inactive)	> 100 µM (inactive)	> 100 µM (inactive)	–	–	–	–
COc1ccc(C(=O)Nc2ccccc2C#N)cc1	> 100 µM (inactive)	> 100	> 100 µM (inactive)	> 100 µM (inactive)	> 100 µM (inactive)	> 100 µM (inactive)	> 100 µM (inactive)	> 100 µM (inactive)	> 100 µM (inactive)	> 100 µM (inactive)	–	> 100 µM (inactive)	> 100 µM (inactive)	51.1 µM (inactive)	> 100 µM (inactive)	–	–	–	–
CCCCN1C(=O)c2c(Br)sc(Br)c2C1=O	60 µM (inactive)	25.7	32.6 µM (inactive)	52 µM (inactive)	39.5 µM (inactive)	–	39.1 µM (inactive)	47.8 µM (inactive)	19.5 µM (inactive)	43.9 µM (inactive)	24.2 µM (inactive)	51.5 µM (inactive)	25.1 µM (inactive)	29.5 µM (inactive)	50.6 µM (inactive)	36.4 µM (inactive)	57.7 µM (inactive)	26.9 µM (inactive)	20.2 µM (inactive)
N=C(N)Cn1cnc2ccccc21	> 100 µM (inactive)	> 100	> 100 µM (inactive)	> 100 µM (inactive)	> 100 µM (inactive)	–	> 100 µM (inactive)	> 100 µM (inactive)	> 100 µM (inactive)	> 100 µM (inactive)	> 100 µM (inactive)	> 100 µM (inactive)	> 100 µM (inactive)	> 100 µM (inactive)	> 100 µM (inactive)	–	–	–	–
Cc1nnc2n1N=C(CC(=O)c1ccc(O)cc1O)CN2N	> 100 µM (inactive)	15.5	68.9 µM (inactive)	> 100 µM (inactive)	> 100 µM (inactive)	–	> 100 µM (inactive)	> 100 µM (inactive)	19.2 µM (inactive)	> 100 µM (inactive)	–	> 100 µM (inactive)	> 100 µM (inactive)	–	> 100 µM (inactive)	–	–	–	–
NC1CCCCC1.O=C(O)C(CP(=O)(O)O)=C(Cl)Cl	> 100 µM (inactive)	> 100	> 100 µM (inactive)	> 100 µM (inactive)	–	> 100 µM (inactive)	> 100 µM (inactive)	> 100 µM (inactive)	> 100 µM (inactive)	> 100 µM (inactive)	> 100 µM (inactive)	> 100 µM (inactive)	–	> 100 µM (inactive)	–	–	–	–	–
Nc1ccc2n[se]nc2c1	23.8 µM (inactive)	> 100	29.6 µM (inactive)	> 100 µM (inactive)	> 100 µM (inactive)	–	> 100 µM (inactive)	> 100 µM (inactive)	–	> 100 µM (inactive)	> 100 µM (inactive)	> 100 µM (inactive)	48.1 µM (inactive)	> 100 µM (inactive)	> 100 µM (inactive)	–	–	–	–
CN(C)CCC[N+]1=Nc2cccc3cccc(c23)N1	59.4 µM (inactive)	39.3	31.9 µM (inactive)	–	14.1 µM (inactive)	66.7 µM (inactive)	60 µM (inactive)	50.7 µM (inactive)	> 10 µM (inactive)	56.2 µM (inactive)	24.4 µM (inactive)	> 100 µM (inactive)	> 100 µM (inactive)	> 100 µM (inactive)	27.4 µM (inactive)	–	–	–	–
CC(SC(=S)Nc1cccc(F)c1)C(=O)O (stereo not given)	29.2 µM (inactive)	26.1	16.1 µM (inactive)	14.2 µM (inactive)	–	–	28.9 µM (inactive)	26.5 µM (inactive)	> 10 µM (inactive)	16.1 µM (inactive)	17.5 µM (inactive)	29.4 µM (inactive)	> 10 µM (inactive)	–	26.7 µM (inactive)	–	–	–	–
C=CCN1C(=O)C(=O)N(CC=C)C(=O)C1=O	> 100 µM (inactive)	> 100	> 100 µM (inactive)	> 100 µM (inactive)	> 100 µM (inactive)	> 100 µM (inactive)	> 100 µM (inactive)	–	> 100 µM (inactive)	–	> 100 µM (inactive)	> 100 µM (inactive)	> 100 µM (inactive)	> 100 µM (inactive)	> 100 µM (inactive)	–	–	–	–
Cc1c(C(=O)C/C(=N\O)C(=O)Nc2cc(Cl)c(Cl)cc2Cl)[n+]([O-])c2ccccc2[n+]1[O-]	29.2 µM (inactive)	8.17	6.65 µM (inactive)	22.5 µM (inactive)	5.47 µM (inactive)	19.2 µM (inactive)	11 µM (inactive)	17.5 µM (inactive)	2.92 µM (inactive)	22.4 µM (inactive)	13.3 µM (inactive)	36.1 µM (inactive)	11.1 µM (inactive)	33.2 µM (inactive)	19.9 µM (inactive)	–	–	–	–
O=C(NNC(=S)NCc1ccccc1)c1csc(NC(=S)NC2CCCCC2)n1	42.5 µM (inactive)	37.5	27.4 µM (inactive)	–	13.8 µM (inactive)	–	33.3 µM (inactive)	38.2 µM (inactive)	18.2 µM (inactive)	–	30.3 µM (inactive)	76.6 µM (inactive)	49.9 µM (inactive)	–	42 µM (inactive)	59 µM (inactive)	30 µM (inactive)	44.9 µM (inactive)	29.6 µM (inactive)
N=c1c2ccccc2sc2nc3ccccc3n12	> 100 µM (inactive)	–	> 100 µM (inactive)	> 100 µM (inactive)	> 100 µM (inactive)	> 100 µM (inactive)	> 100 µM (inactive)	> 100 µM (inactive)	> 100 µM (inactive)	> 100 µM (inactive)	> 100 µM (inactive)	> 100 µM (inactive)	> 100 µM (inactive)	–	> 100 µM (inactive)	–	–	–	–
